The source of these data is patent publication US7074959B2, “Methods and systems for remediating hydrazine-contaminated equipment and/or surfaces” (New Mexico Highlands University, priority 2002, dated 2006).

Data set [1] is described as follows: solubility of the hydrazine/2-ketoglutaric acid adduct in water. In kind it is physicochemical. Conditions: allows separation of most of the adduct by simple filtration. The source says:
FIG. 3 illustrates a schematic diagram 300 depicting a reaction of 2-ketoglutataric acid, which provides a near quantitative conversion of hydrazine to a 6-oxo-1,4,5,6-tetrahydro-pyridazine-3-carbonic acid, a preferred embodiment of the present invention. In general, the chemical transformation depicted in schematic diagram 300 of FIG. 3 allows for the removal of hydrazine from aqueous solutions generated by the decontamination processes described herein. The reaction with concentrated hydrazine also can provide the desired product with some evolution of heat.

For data set [2] the following is noted: MSDS listing; cited from earlier work.

For the molecule `O=C1CCC(C(=O)O)=NN1` [6-oxo-1,4,5,6-tetrahydro-pyridazine-3-carbonic acid], the solubility in water entry in data set [1] was “low solubility”. The “known acute toxicities listed in MSDS” value in data set [2] is “does not list any known acute toxicities”.
